Results published in ChEMBL document CHEMBL6127120, “Antiplasmodial and Insecticidal Activities of Third-Generation Ivermectin Hybrids” (J Med Chem, 2024).
Activity calls are given as the source filed them. No cut-off for these calls is given here.

Columns and labels:
Type in all cases: functional, organism-based
Anopheles stephensi = test: Anti-insecticidal activity against female Anopheles stephensi mosquitoes assessed as mosquito survival treated after 18 to 22 hrs starvation using 70 ng/ml compound containing human O+ blood meal via artificial membrane measured after 14 days relative to control
Plasmodium berghei [1] = test: Anti-plasmodial activity against pre-erythrocytic stage Plasmodium berghei infected in human Huh-7 cells at 10 to 500 nM by bioluminescence assay; conditions: dose 10-500 nM
Plasmodium berghei [2] = test: Anti-plasmodial activity against pre-erythrocytic stage Plasmodium berghei infected in human Huh-7 cells by bioluminescence assay
Plasmodium falciparum = test: Anti-plasmodial activity against erythrocytic stage Plasmodium falciparum NF54 in […] measured after 48 hrs by SYBR green dye based flow cytometry; conditions: NF54, 48 h
Plasmodium berghei [3] = test: In vivo antiplasmodial activity against Balb/c mouse infected with luciferase expressing Plasmodium berghei infected in red blood cells assessed as parasitemia in blood by measuring bioluminescence at 50 mg/kg, oral gavage 4 consecutive treatment measured upto day 8; conditions: time 8.0 day
Plasmodium berghei [4] = test: In vivo antiplasmodial activity against Balb/c mouse infected with luciferase expressing Plasmodium berghei infected in red blood cells assessed as parasitemia in blood by measuring bioluminescence at 2 mg/kg, oral gavage 4 consecutive treatment measured upto day 8; conditions: time 8.0 day
Plasmodium berghei [5] = test: Anti-plasmodial activity against hepatic stage GFP-expressing Plasmodium berghei infected in human Huh-7 cells assessed as parasite invasion of host cells treated at IC90 measured after 48 hrs of post-infection by flow cytometry
Plasmodium berghei [6] = test: Anti-plasmodial activity against hepatic stage GFP-expressing Plasmodium berghei infected in human Huh-7 cells assessed as parasite invasion of host cells treated at IC90 measured after 2 hrs of post-infection by flow cytometry

Compound | Activity (Anopheles stephensi) | Activity (Plasmodium berghei [1]) | IC50 (Plasmodium berghei [2]) | IC50 (Plasmodium falciparum) | also measured
CCC(C)[C@H]1O[C@]2(CC[C@@H]1C)C[C@@H]1C[C@@H](C/C=C(\C)[C@@H](O[C@H]3C[C@H](OC)[C@@H](O[C@H]4C[C@H](OO)[C@@H](OC(=O)CNC5CCNCC5)[C@H](C)O4)[C@H](C)O3)[C@@H](C)/C=C/C=C3\CO[C@@H]4[C@H](O)C(C)=C[C@@H](C(=O)O1)[C@]34O)O2 (stereo not given in full) | inactive | inactive | 5.8 µM | – | –
CCC(C)[C@H]1O[C@]2(CC[C@@H]1C)C[C@@H]1C[C@@H](C/C=C(\C)[C@@H](O[C@H]3C[C@H](OC)[C@@H](OC(=O)CNC4CCNCC4)[C@H](C)O3)[C@@H](C)/C=C/C=C3\CO[C@@H]4[C@H](O)C(C)=C[C@@H](C(=O)O1)[C@]34O)O2 (stereo not given in full) | Active | inactive | 5.7 µM | – | –
CCC(C)[C@H]1O[C@]2(CC[C@@H]1C)C[C@@H]1C[C@@H](C/C=C(\C)[C@@H](O[C@H]3C[C@H](OC)[C@@H](O)[C@H](C)O3)[C@@H](C)/C=C/C=C3\CO[C@@H]4[C@H](O[Si](C)(C)C(C)(C)C)C(C)=C[C@@H](C(=O)O1)[C@]34O)O2 (stereo not given in full) | – | Dose-Dependent Effect | 2.91 µM | 0.72 µM | –
CCN(CC)CCCC(C)Nc1ccnc2cc(Cl)ccc12 (stereo not given) | – | – | – | – | Activity (Plasmodium berghei [3]): Active
CCC(C)[C@H]1O[C@]2(CC[C@@H]1C)C[C@@H]1C[C@@H](C/C=C(\C)[C@@H](O)[C@@H](C)/C=C/C=C3\CO[C@@H]4[C@H](O)C(CO)=C[C@@H](C(=O)O1)[C@]34O)O2 (stereo not given in full) | Active | inactive | 1.64 µM | – | –
CCC(C)[C@H]1O[C@]2(CC[C@@H]1C)C[C@@H]1C[C@@H](C/C=C(\C)[C@@H](O[C@H]3C[C@H](OC)[C@@H](O[C@H]4C[C@H](OO)[C@@H](OC(=O)CCl)[C@H](C)O4)[C@H](C)O3)[C@@H](C)/C=C/C=C3\CO[C@@H]4[C@H](O)C(C)=C[C@@H](C(=O)O1)[C@]34O)O2 (stereo not given in full) | Active | Dose-Dependent Effect | 2.61 µM | 0.3 µM | –
CCC(C)[C@H]1O[C@]2(CC[C@@H]1C)C[C@@H]1C[C@@H](C/C=C(\C)[C@@H](O[C@H]3C[C@H](OC)[C@@H](OC(=O)CCl)[C@H](C)O3)[C@@H](C)/C=C/C=C3\CO[C@@H]4[C@H](O)C(C)=C[C@@H](C(=O)O1)[C@]34O)O2 (stereo not given in full) | – | inactive | – | – | –
CCC(C)[C@H]1O[C@]2(CC[C@@H]1C)C[C@@H]1C[C@@H](C/C=C(\C)[C@@H](O[C@H]3C[C@H](OC)[C@@H](O[C@H]4C[C@H](OO)[C@@H](O)[C@H](C)O4)[C@H](C)O3)[C@@H](C)/C=C/C=C3\CO[C@@H]4[C@H](O)C(C)=C[C@@H](C(=O)O1)[C@]34O)O2 (stereo not given in full) | – | Dose-Dependent Effect | 1.5 µM | 0.46 µM | IC90 (Plasmodium berghei [2]): 3.1 µM
CCC(C)[C@H]1O[C@]2(CC[C@@H]1C)C[C@@H]1C[C@@H](C/C=C(\C)[C@@H](O[C@H]3C[C@H](OC)[C@@H](OC(=O)CCl)[C@H](C)O3)[C@@H](C)/C=C/C=C3\CO[C@@H]4[C@H](O[Si](C)(C)C(C)(C)C)C(C)=C[C@@H](C(=O)O1)[C@]34O)O2 (stereo not given in full) | – | inactive | – | – | –
CCOC(=O)c1c(C)nc(OCc2cn(CC(=O)O[C@H]3[C@H](C)O[C@@H](O[C@H]4[C@H](C)O[C@@H](O[C@@H]5/C(C)=C/C[C@@H]6C[C@@H](C[C@]7(CC[C@H](C)[C@@H](C(C)CC)O7)O6)OC(=O)[C@@H]6C=C(C)[C@@H](O)[C@H]7OC/C(=C\C=C\[C@@H]5C)[C@]76O)C[C@@H]4OC)C[C@@H]3OC)nn2)nc1-c1cc(OC)c(OC)cc1[N+](=O)[O-] (stereo not given in full) | – | Dose-Dependent Effect | 2.33 µM | 0.03 µM | Activity (Plasmodium berghei [4]): inactive; Activity (Plasmodium berghei [5]): Active; IC90 (Plasmodium berghei [2]): 4.28 µM; Activity (Plasmodium berghei [6]): inactive
CCC(C)[C@H]1O[C@]2(CC[C@@H]1C)C[C@@H]1C[C@@H](C/C=C(\C)[C@@H](O[C@H]3C[C@H](OC)[C@@H](O)[C@H](C)O3)[C@@H](C)/C=C/C=C3\CO[C@@H]4[C@H](O)C(CO)=C[C@@H](C(=O)O1)[C@]34O)O2 (stereo not given in full) | Active | inactive | 2.6 µM | – | –
CCC(C)[C@H]1O[C@]2(CC[C@@H]1C)C[C@@H]1C[C@@H](C/C=C(\C)[C@@H](O[C@H]3C[C@H](OC)[C@@H](O[C@H]4C[C@H](OO)[C@@H](OC(=O)CCl)[C@H](C)O4)[C@H](C)O3)[C@@H](C)/C=C/C=C3\CO[C@@H]4[C@H](O[Si](C)(C)C(C)(C)C)C(C)=C[C@@H](C(=O)O1)[C@]34O)O2 (stereo not given in full) | – | inactive | – | – | –
CCC(C)[C@H]1O[C@]2(CC[C@@H]1C)C[C@@H]1C[C@@H](C/C=C(\C)[C@@H](O[C@H]3C[C@H](OC)[C@@H](O[C@H]4C[C@H](OO)[C@@H](O)[C@H](C)O4)[C@H](C)O3)[C@@H](C)/C=C/C=C3\CO[C@@H]4[C@H](O)C(CO)=C[C@@H](C(=O)O1)[C@]34O)O2 (stereo not given in full) | Active | inactive | 2.22 µM | – | –
CCC(C)[C@H]1O[C@]2(CC[C@@H]1C)C[C@@H]1C[C@@H](C/C=C(\C)[C@@H](O[C@H]3C[C@H](OC)[C@@H](O[C@H]4C[C@H](OO)[C@@H](O)[C@H](C)O4)[C@H](C)O3)[C@@H](C)/C=C/C=C3\CO[C@@H]4[C@H](O[Si](C)(C)C(C)(C)C)C(C)=C[C@@H](C(=O)O1)[C@]34O)O2 (stereo not given in full) | – | Dose-Dependent Effect | 3.69 µM | 0.7 µM | –
CCOC(=O)c1c(C)nc(OCc2cn(CC(=O)O[C@H]3[C@H](C)O[C@@H](O[C@@H]4/C(C)=C/C[C@@H]5C[C@@H](C[C@]6(CC[C@H](C)[C@@H](C(C)CC)O6)O5)OC(=O)[C@@H]5C=C(C)[C@@H](O)[C@H]6OC/C(=C\C=C\[C@@H]4C)[C@]65O)C[C@@H]3OC)nn2)nc1-c1cc(OC)c(OC)cc1[N+](=O)[O-] (stereo not given in full) | – | Dose-Dependent Effect | 1.54 µM | 0.11 µM | Activity (Plasmodium berghei [4]): inactive; Activity (Plasmodium berghei [5]): Active; IC90 (Plasmodium berghei [2]): 3.18 µM; Activity (Plasmodium berghei [6]): inactive
CCC(C)[C@H]1O[C@]2(CC[C@@H]1C)C[C@@H]1C[C@@H](C/C=C(\C)[C@@H](O[C@H]3C[C@H](OC)[C@@H](O)[C@H](C)O3)[C@@H](C)/C=C/C=C3\CO[C@@H]4[C@H](O)C(C)=C[C@@H](C(=O)O1)[C@]34O)O2 (stereo not given in full) | Active | inactive | 5.63 µM | – | –
